target: T1, hM1 (human Muscarinic receptor subtype 1) (Homo sapiens, UniProt P11229); test: Human M1 calcium mobilization FLIPR assay; format: cell-based; conditions: hM1 expressed in CHO cells, intracellular Ca2+ release (FLIPR)
T1 construct: expressed in transfected cells; host or cells: CHO cells (ATCC)
T1 sequence (P11229 1-460): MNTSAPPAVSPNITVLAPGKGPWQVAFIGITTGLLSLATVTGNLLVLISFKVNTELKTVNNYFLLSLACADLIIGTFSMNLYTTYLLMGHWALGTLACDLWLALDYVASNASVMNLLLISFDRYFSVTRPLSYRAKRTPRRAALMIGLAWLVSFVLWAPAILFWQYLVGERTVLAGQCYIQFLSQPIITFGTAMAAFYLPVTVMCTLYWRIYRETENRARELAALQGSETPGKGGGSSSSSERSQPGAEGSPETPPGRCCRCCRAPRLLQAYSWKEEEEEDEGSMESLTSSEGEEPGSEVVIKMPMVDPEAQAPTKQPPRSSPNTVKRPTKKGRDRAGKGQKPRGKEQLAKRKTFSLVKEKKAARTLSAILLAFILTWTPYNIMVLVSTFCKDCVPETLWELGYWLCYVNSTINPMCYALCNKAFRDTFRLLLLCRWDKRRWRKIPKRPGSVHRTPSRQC
Description: (§1) Human M1, rat M1, Human M3 and Human M5 Calcium Mobilization FLIPR™ Assay The compound activity in the present invention (EC50 or IC50) is measured using a 384 plate-based imaging assay that monitors drug induced intracellular Ca^2+ release in whole cells. Activation of hM1 (human Muscarinic receptor subtype 1, gene bank access NM_000738), rM1 (rat Muscarinic receptor subtype 1, gene bank access NM_080773), hM3 (human Muscarinic receptor subtype 3, gene bank access NM_000740NM_000740) and hM5 (human Muscarinic receptor subtype 5, gene bank access NM_0121258), receptors expressed in CHO cells (Chinese hamster ovary cells, ATCC) is quantified in a Molecular Devices FLIPR IITM instrument as an increase in fluorescent signal. Inhibition of hM3 and hM5 by compounds is determined by the decrease in fluorescent signal in response to 2 nM acetylcholine activation. […] Prior to experiment, the cell culture medium is removed from the plates by inversion. […] Plates are incubated at 37° C. for 60 minutes prior to start the experiment. The incubation is terminated by washing the cells four times in assay buffer, leaving a residual 25 μl buffer per well. Cell plates are then transferred to the FLIPR, ready for compound additions. The day of experiment, acetylcholine and compounds are diluted in assay buffer in three-fold concentration range (10 points serial dilution) for addition by FLIPR instrument. For all calcium assays, a baseline reading is taken for 10 seconds followed by the addition of 12.5 μl of compounds, resulting in a total well volume of 37.5 μl. Data is collected every second for 60 pictures and then every 6 seconds for 20 pictures prior to the addition of agonist. For hM3 and hM5, before agonist addition, a second baseline reading is taken for 10 seconds followed by the addition of 12.5 μl of agonist or buffer, producing a final volume of 50 μl. After agonist stimulation, the FLIPR continues to collect data every second for 60 pictures and then every 6 seconds for 20 pictures. The fluorescence emission is read using filter 1 (emission 510-570 nm) by the FLIPR on board CCD camera. Calcium mobilization output data are calculated as the maximal relative fluorescence unit (RFU) minus the minimal value for both compound and agonist reading frame (except for hM1 and rM1 using only the maximal RFU). Data are analyzed using sigmoidal fits of a non-linear curve-fitting program (XLfit version 4.2.2 Excel add-in version 4.2.2 build 18 math 1Q version 2.1.2 build 18). All pEC50 and pIC50 values are reported as arithmetic means±standard error of mean of ‘n’ independent experiments.

Row | Structure (SMILES) | EC50
1 | C#CCOC1CCC(N2CCC(N3C(=O)NC[C@H]4CCCC[C@@H]43)CC2)CC1 (mixture of isomers) [Example 09, (4aR,8aS)-1-(1-(4-(prop-2-ynyloxy)cyclohexyl)piperidin-4-yl)octahydroquinazolin-2(1 H)-one] | 31 nM
2 | CCC1CCC(N2CCC(N3C(=O)NC[C@H]4CCCC[C@@H]43)CC2)CC1 (mixture of isomers) [Example 11, (4aR,8aS)-1-(1-(4-ethylcyclohexyl)piperidin-4-yl)octahydroquinazolin-2(1H)-one] | 43 nM
3 | CCCOC1CCC(N2CCC(N3C(=O)NC[C@H]4CCCC[C@@H]43)CC2)CC1 (single isomer, unassigned) [Example 05] | 160 nM
4 | CC(C)OC1CCC(N2CCC(N3C(=O)NC[C@H]4CCCC[C@@H]43)CC2)CC1 (single isomer, unassigned) [Example 07] | 660 nM
5 | CCCOC1CCC(N2CCC(N3C(=O)CO[C@H]4CCCC[C@@H]43)CC2)CC1 (single isomer, unassigned) [Example 16] | 190 nM
6 | O=C1CO[C@H]2CCCC[C@@H]2N1C1CCN(C2CCC(OCC3CC3)CC2)CC1 (single isomer, unassigned) [Example 20] | 170 nM
7 | O=C1CO[C@H]2CCCC[C@@H]2N1C1CCN(C2CCC(OCC3CC3)CC2)CC1 (single isomer, unassigned) [Example 21] | 110 nM
8 | CCOCC1(C)CCC(N2CCC(N3C(=O)CO[C@H]4CCCC[C@@H]43)CC2)CC1 (single isomer, unassigned) [Example 30] | 200 nM
9 | CCOCC1(C)CCC(N2CCC(N3C(=O)CO[C@H]4CCCC[C@@H]43)CC2)CC1 (single isomer, unassigned) [Example 31] | 190 nM
10 | CCOC[C@H]1CC[C@@H](N2CCC(N3C(=O)COC4CCCCC43)CC2)CC1 (single isomer, unassigned) [Example 33] | 110 nM
11 | CCOC[C@H]1CC[C@@H](N2CCC(N3C(=O)COC4CCCCC43)CC2)CC1 (single isomer, unassigned) [Example 34] | 80 nM
12 | CC(C)OCC1CCC(N2CCC(N3C(=O)CO[C@@H]4CCC(F)(F)C[C@H]43)CC2)CC1 (single isomer, unassigned) [Example 35] | 180 nM
13 | CC(C)OCC1CCC(N2CCC(N3C(=O)CO[C@@H]4CCC(F)(F)C[C@H]43)CC2)CC1 (single isomer, unassigned) [Example 36] | 310 nM
14 | O=C1CO[C@H]2CCCC[C@@H]2N1C1CCN(C2CC(COCC3CC3)C2)CC1 (single isomer, unassigned) [Example 41] | 52 nM
15 | O=C1COC2CCCC2N1C1CCN([C@H]2CC[C@@H](COCC3CC3)CC2)CC1 (single isomer, unassigned) [Example 49] | 110 nM
16 | O=C1NC[C@H]2CCCC[C@@H]2N1C1CCN(C2CCC(COCC(F)F)CC2)CC1 (single isomer, unassigned) [Example 50] | 0.76 nM
17 | O=C1NC[C@H]2CCCC[C@@H]2N1C1CCN(C2CCCC2)CC1 [Example 10, (4aR,8aS)-1-(1-cyclopentylpiperidin-4-yl)octahydroquinazolin-2(1H)-one] | 68 nM
18 | O=C1NC[C@H]2CCCC[C@@H]2N1C1CCN(C2CCCCC2)CC1 [Example 12, (4aR,8aS)-1-(1-cyclohexylpiperidin-4-yl)octahydroquinazolin-2(1H)-one] | 60 nM
19 | O=C1CO[C@@H]2CCCC[C@H]2N1C1CCN([C@H]2CC[C@@H](COCC3CC3)CC2)CC1 [Example 32, (4aR,8aR)-4-(1-((1s,4S)-4-((cyclopropylmethoxy)methyl)cyclohexyl)piperidin-4-yl)hexahydro-2H-benzo[b][1,4]oxazin-3(4H)-one] | 190 nM
20 | CCOC[C@H]1CC[C@@H](N2CCC(N3C(=O)CO[C@@H]4CCCC[C@H]43)CC2)C1 [Example 46, (4aR,8aR)-4-(1-((1R,3S)-3-(ethoxymethyl)cyclopentyl)piperidin-4-yl)hexahydro-2H-benzo[b][1,4]oxazin-3(4H)-one] | 290 nM
21 | O=C1CO[C@@H]2CCC[C@@H]2N1C1CCN([C@H]2CC[C@@H](COCC3CC3)CC2)CC1 [Example 47, (4aS,7aR)-4-(1-((1s,4R)-4-((cyclopropylmethoxy)methyl)cyclohexyl)piperidin-4-yl)hexahydrocyclopenta[b][1,4]oxazin-3(2H)-one] | 93 nM

target: T2, cloned human M2 receptor (Homo sapiens, UniProt P08172); test: hM2 receptor GTPγS binding; format: biochemical; conditions: CHO membranes expressing hM2, [35S]GTPγS binding
T2 construct: purchased Perkin-Elmer RBHM2M; host or cells: Chinese hamster ovary cells (CHO), membranes
T2 sequence (P08172 1-466): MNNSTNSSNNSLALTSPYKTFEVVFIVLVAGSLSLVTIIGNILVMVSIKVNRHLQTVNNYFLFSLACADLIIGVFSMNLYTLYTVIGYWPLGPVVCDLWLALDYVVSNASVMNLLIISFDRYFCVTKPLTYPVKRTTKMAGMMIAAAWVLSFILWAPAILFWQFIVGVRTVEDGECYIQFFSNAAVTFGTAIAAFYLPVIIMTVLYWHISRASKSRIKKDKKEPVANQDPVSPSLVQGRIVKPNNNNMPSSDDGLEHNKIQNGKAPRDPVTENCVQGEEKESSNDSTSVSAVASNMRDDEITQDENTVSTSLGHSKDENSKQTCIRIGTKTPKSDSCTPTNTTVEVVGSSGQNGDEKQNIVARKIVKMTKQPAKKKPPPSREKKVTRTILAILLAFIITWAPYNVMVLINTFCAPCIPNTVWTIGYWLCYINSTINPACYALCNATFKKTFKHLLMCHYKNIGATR
Description: hM2 Receptor GTPγS Binding Membranes produced from Chinese hamster ovary cells (CHO) expressing the cloned human M2 receptor (human Muscarinic receptor subtype 2, gene bank access NM_000739), are obtained from Perkin-Elmer (RBHM2M). The membranes are thawed at 37° C., passed 3 times through a 23-gauge blunt-end needle, diluted in the GTPγS binding buffer (50 mM Hepes, 20 mM NaOH, 100 mM NaCl, 1 mM EDTA, 5 mM MgCl2, pH 7.4, 100 μM DTT). The EC50, IC50 and Emax of the compounds of the invention are evaluated from 10-point dose-response curves (three fold concentration range) done in 60 μl in 384-well non-specific binding surface plate (Corning). Ten microliters from the dose-response curves plate (5× concentration) are transferred to another 384 well plate containing 25 μl of the following: 5 μg of hM2 membranes, 500 μg of Flashblue beads (Perkin-Elmer) and GDP 25 μM. An additional 15 μl containing 3.3× (60,000 dpm) of GTPγ^35S (0.4 nM final) are added to the wells resulting in a total well volume of 50 μl. Basal and maximal stimulated [^35S]GTPγS binding are determined in absence and presence of 30 μM final of acetylcholine agonist. The membranes/beads mix are pre-incubated for 15 minutes at room temperature with 25 μM GDP prior to distribution in plates (12.5 μM final). The reversal of acetylcholine-induced stimulation (2 μM final) of [^35S]GTPγS binding is used to assay the antagonist properties (IC50) of the compounds. The plates are incubated for 60 minutes at room temperature then centrifuged at 400 rpm for 5 minutes. The radioactivity (cpm) is counted in a Trilux (Perkin-Elmer). Values of EC50, IC50 and Emax are obtained using sigmoidal fits of a non-linear curve-fitting program (XLfit version 4.2.2 Excel add-in version 4.2.2 build 18 math 1Q version 2.1.2 build 18) of percent stimulated [^35S]GTPγS binding vs. log(molar ligand). All pEC50 and pIC50 values are reported as arithmetic means±standard error of mean of ‘n’ independent experiments.

Row | Structure (SMILES) | EC50
22 | O=C1CO[C@H]2CCCC[C@@H]2N1C1CCN(C2CC(COCC3CC3)C2)CC1 (single isomer, unassigned) [Example 41] | > 15000 nM
23 | O=C1NC[C@H]2CCCC[C@@H]2N1C1CCN(C2CCC(COCC(F)F)CC2)CC1 (single isomer, unassigned) [Example 50] | 340 nM

target: T3, hM3 (human Muscarinic receptor subtype 3) (Homo sapiens, UniProt P20309); test: Human M3 calcium mobilization FLIPR assay; format: cell-based; conditions: hM3 expressed in CHO cells, intracellular Ca2+ release (FLIPR)
T3 construct: expressed in transfected cells; host or cells: CHO cells (ATCC)
Description: as §1

T3 sequence (P20309 whole entry): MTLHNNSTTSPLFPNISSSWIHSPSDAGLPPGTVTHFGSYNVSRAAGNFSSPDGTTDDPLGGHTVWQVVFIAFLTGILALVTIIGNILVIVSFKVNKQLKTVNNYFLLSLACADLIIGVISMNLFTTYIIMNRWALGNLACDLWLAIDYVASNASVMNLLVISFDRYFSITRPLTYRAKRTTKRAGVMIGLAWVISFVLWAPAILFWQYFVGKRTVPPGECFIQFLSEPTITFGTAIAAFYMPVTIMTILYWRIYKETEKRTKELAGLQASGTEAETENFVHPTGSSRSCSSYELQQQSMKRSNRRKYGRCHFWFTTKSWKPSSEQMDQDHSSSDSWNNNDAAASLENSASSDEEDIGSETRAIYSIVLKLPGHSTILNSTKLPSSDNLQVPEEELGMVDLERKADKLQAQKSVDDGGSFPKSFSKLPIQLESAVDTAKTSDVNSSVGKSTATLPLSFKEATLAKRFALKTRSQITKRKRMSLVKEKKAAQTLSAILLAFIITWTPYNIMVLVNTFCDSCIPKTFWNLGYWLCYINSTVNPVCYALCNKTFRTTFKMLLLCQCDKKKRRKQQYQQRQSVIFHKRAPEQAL

Row | Structure (SMILES) | EC50
24 | CCC1CCC(N2CCC(N3C(=O)NC[C@H]4CCCC[C@@H]43)CC2)CC1 (mixture of isomers) [Example 11, (4aR,8aS)-1-(1-(4-ethylcyclohexyl)piperidin-4-yl)octahydroquinazolin-2(1H)-one] | > 40000 nM
25 | O=C1NC[C@H]2CCCC[C@@H]2N1C1CCN(C2CCCCC2)CC1 [Example 12, (4aR,8aS)-1-(1-cyclohexylpiperidin-4-yl)octahydroquinazolin-2(1H)-one] | > 40000 nM

Source: US20090275574A1, “NOVEL COMPOUNDS-300” (ASTRAZENECA AB, priority 2008, published 2009)
